# Patent publication US20240018135A1, “COMPOUND HAVING INHIBITORY ACTIVITY AGAINST O-GLUSACASE AND USE THEREOF” (MEDIFRON DBT INC., priority 2020, published 2024)
# Key:
# [1] = biological target: Human OGA (recombinant hOGA protein) (Homo sapiens (Human), UniProt O60502); assay: Human OGA enzyme activity assay (fluorescence, 4-Methylumbelliferyl N-acetyl-β-D-glucosaminide substrate); type: biochemical; details: for IC50: Table 1; for % of inhibition: Table 1, test concentration not given
# [2] = biological target: bacterial homolog of O-GlcNAcase from Clostridium perfringens (Clostridium perfringens (strain 13 / Type A), UniProt Q8XL08); details: cited from earlier work
# bacterial homolog of O-GlcNAcase from Clostridium perfringens, sequence (Q8XL08 31-1001 limits assumed): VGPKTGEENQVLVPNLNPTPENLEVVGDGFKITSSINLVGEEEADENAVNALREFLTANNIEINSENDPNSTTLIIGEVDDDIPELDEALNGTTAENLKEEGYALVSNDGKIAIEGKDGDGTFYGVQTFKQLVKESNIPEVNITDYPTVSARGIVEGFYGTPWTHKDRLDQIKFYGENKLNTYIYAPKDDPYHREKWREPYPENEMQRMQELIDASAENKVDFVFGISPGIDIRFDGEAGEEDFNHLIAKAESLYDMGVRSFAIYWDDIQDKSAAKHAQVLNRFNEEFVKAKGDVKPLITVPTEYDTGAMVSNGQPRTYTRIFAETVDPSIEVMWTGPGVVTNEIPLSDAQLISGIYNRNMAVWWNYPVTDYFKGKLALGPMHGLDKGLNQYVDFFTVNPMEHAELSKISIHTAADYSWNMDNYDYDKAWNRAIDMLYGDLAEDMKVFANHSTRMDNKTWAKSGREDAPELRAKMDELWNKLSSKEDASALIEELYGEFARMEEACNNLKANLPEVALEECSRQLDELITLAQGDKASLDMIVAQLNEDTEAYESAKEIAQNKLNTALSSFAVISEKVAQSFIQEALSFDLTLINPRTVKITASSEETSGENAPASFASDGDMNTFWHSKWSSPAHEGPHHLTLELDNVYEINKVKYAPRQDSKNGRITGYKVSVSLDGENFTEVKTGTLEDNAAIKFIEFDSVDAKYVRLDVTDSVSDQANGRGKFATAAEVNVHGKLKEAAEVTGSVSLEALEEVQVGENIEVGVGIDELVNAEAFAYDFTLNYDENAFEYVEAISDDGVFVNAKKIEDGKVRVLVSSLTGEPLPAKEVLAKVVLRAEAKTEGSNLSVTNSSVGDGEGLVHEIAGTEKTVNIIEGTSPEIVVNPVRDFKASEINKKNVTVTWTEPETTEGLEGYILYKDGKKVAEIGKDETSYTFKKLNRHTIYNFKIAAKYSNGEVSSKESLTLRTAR
# human O-GlcNAcase = human O-GlcNAcase (Homo sapiens (Human), UniProt O60502); details: cited from earlier work
# human O-GlcNAcase, sequence (O60502 whole entry): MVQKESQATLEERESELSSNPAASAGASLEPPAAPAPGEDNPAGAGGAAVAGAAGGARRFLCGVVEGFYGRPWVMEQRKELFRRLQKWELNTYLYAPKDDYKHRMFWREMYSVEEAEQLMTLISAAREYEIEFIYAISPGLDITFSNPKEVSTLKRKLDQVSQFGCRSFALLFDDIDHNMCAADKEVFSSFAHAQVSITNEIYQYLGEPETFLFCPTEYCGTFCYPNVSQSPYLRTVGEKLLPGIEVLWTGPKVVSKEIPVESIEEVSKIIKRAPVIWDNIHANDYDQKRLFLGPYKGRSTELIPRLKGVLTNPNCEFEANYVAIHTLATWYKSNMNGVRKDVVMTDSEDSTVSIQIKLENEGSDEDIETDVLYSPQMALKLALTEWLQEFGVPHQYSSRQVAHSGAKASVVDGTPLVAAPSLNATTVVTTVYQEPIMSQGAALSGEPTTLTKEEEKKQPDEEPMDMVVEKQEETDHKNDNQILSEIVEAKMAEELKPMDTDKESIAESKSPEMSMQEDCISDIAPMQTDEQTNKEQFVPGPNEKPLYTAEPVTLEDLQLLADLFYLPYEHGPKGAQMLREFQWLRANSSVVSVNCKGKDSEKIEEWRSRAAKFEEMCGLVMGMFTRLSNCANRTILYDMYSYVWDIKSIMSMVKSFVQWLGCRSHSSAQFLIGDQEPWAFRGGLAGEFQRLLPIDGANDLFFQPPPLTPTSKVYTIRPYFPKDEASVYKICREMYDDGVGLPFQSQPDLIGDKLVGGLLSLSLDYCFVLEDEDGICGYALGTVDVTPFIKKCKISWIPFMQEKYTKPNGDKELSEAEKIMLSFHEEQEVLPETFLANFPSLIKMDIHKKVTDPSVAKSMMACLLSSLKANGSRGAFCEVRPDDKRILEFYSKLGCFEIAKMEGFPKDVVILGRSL
# Human OGA (recombinant hOGA protein), sequence (O60502 whole entry): as above
SMILES,melting point,IC50 [1],% of inhibition [1],efficacy [2],Ki (human O-GlcNAcase)
"CC(=O)Nc1ncc(CN2CCC(=CC(=O)Nc3ccccc3)CC2)s1 [Compound C-1, 2-(1-((2-acetamidothiazol-5-yl)methyl)piperidin-4-ylidene)-N-phenylacetamide]",184 to 185 °C,310 nM,96.2%,–,–
"CC(=O)Nc1ncc(CN2CCC(=CC(=O)Nc3ccc(F)cc3)CC2)s1 [Compound C-2, 2-(1-((2-acetamidothiazol-5-yl)methyl)piperidin-4-ylidene)-N-(4-fluorophenyl)acetamide]",189 to 191 °C,170 nM,97.1%,–,–
"CC(=O)Nc1ncc(CN2CCC(=CC(=O)Nc3ccc(Cl)cc3)CC2)s1 [Compound C-3, 2-(1-((2-acetamidothiazol-5-yl)methyl)piperidin-4-ylidene)-N-(4-chlorophenyl)acetamide]",225 to 228 °C,140 nM,97.3%,–,–
"CC(=O)Nc1ncc(CN2CCC(=CC(=O)Nc3ccc(C(C)C)cc3)CC2)s1 [Compound C-4, 2-(1-((2-acetamidothiazol-5-yl)methyl)piperidin-4-ylidene)-N-(4-isopropylphenyl)acetamide]",232 to 236 °C,230 nM,97.0%,–,–
"COc1ccc(NC(=O)C=C2CCN(Cc3cnc(NC(C)=O)s3)CC2)cc1 [Compound C-5, 2-(1-((2-acetamidothiazol-5-yl)methyl)piperidin-4 ylidene)-N-(4-methoxyphenyl)acetamide]",212 to 214 °C,450 nM,94.8%,–,–
"COc1ccc(NC(=O)C=C2CCN(Cc3cnc(NC(C)=O)s3)CC2)cc1OC [Compound C-6, 2-(1-((2-acetamidothiazol-5-yl)methyl)piperidin-4-ylidene)-N-(3,4-dimethoxyphenyl)acetamide]",214 to 219 °C,350 nM,95.8%,–,–
"COc1ccc(CNC(=O)C=C2CCN(Cc3cnc(NC(C)=O)s3)CC2)cc1 [Compound C-7, 2-(1-((2-acetamidothiazol-5-yl)methyl)piperidin-4-ylidene)-N-(4-methoxybenzyl)acetamide]",222 to 224 °C,80 nM,98.2%,–,–
"CC(=O)Nc1ncc(CN2CCC(=CC(=O)NC3CCCCC3)CC2)s1 [Compound C-8, 2-(1-((2-acetamidothiazol-5-yl)methyl)piperidin-4-ylidene)-N-cyclohexylacetamide]",222 to 224 °C,–,97.7%,–,–
CC(C)C(=O)N[C@H]1c2nc(CCc3ccccc3)cn2[C@H](CO)[C@@H](O)[C@@H]1O [GlcNAcstatin],–,–,–,picomolar,–
CC(=O)N[C@H]1c2nc(CC(=O)O)cn2[C@H](CO)[C@@H](O)[C@@H]1O [gluco-nagstatin],–,–,–,–,420 nM
